The numbers were not newly measured in US20080167327A1, “HYDRATES OF ERLOTINIB HYDROCHLORIDE” (priority 2006, published 2008), which cites them from elsewhere.

Where a name gives a salt, the structure may show the parent alone.

For series [1] the following is noted: compared with Form A; disclosed in WO 01/34574.
The conditions of series [2]: compared with Form B; disclosed in WO 2004/072049.

As for `C#Cc1cccc(Nc2ncnc3cc(OCCOC)c(OCCOC)cc23)c1` [Form B, erlotinib hydrochloride], the thermodynamic stability result in series [1] is reported as “thermodynamically more stable than Form A”.

Consider `C#Cc1cccc(Nc2ncnc3cc(OCCOC)c(OCCOC)cc23)c1` [Form E, erlotinib hydrochloride], for which, in series [2], the solubility entry is reported as “higher solubility”.
